Where two headings read alike, the source gives them in different places.
Legend:
EBC-1 cells [1] = test: Cell proliferation assay (CCK-8); format: cell-based; conditions: Homo sapiens, 72 h
Protocol: (§1) Considering increased c-Met activity has been implicated in multiple tumour cells, we evaluated the half maximal inhibitory concentration (IC50) of LAH-1 in several cancer cell lines which harbour different levels of Met genetic alteration, these include human lung squamous cell carcinoma EBC-1, human gastric cancer line Hs746T, human oesophageal adenocarcinoma cell line OE33, human small-cell lung cancer SBC-5, and human glioblastoma cell U87MG.
(§2) EBC-1, Hs746T, OE33, SBC-5, U87MG, HT-1080 cell lines were purchased from ATCC, RIKEN, ECACC or JCRB. The antiproliferative activities of LAH-1 against these cells were assessed by CCK-8 assay according to the manufacturer’s protocol. Briefly, cells were seeded in 96-well plate at different density. 3-fold serial diluted compound or DMSO control was added to each well. After 72 h incubation, CCK-8 was added and incubated for another 2 h. The optical density of each well was read by microplate reader (Biotech, Shanghai, China). IC50 values were calculated by GraphPad Prism.

Hs746T cells = test: Cell proliferation assay (CCK-8); format: cell-based; conditions: Homo sapiens, 72 h
Protocol: as §1, §2

OE33 cells = test: Cell proliferation assay (CCK-8); format: cell-based; conditions: Homo sapiens, 72 h
Protocol: as §1, §2

SBC-5 cells = test: Cell proliferation assay (CCK-8); format: cell-based; conditions: Homo sapiens, 72 h
Protocol: as §1, §2

U87MG cells = test: Cell proliferation assay (CCK-8); format: cell-based; conditions: Homo sapiens, U-87 MG, 72 h
Protocol: as §1, §2

HT-1080 cells = test: Cell proliferation assay (CCK-8); format: cell-based, human
Protocol: as §1, §2

WI-38 cells = test: Antiproliferative inhibition, normal fibroblasts; format: cell-based; conditions: Homo sapiens
[2] = system: phosphorylation of c-Met, Akt, and Erk 1/2 in EBC-1 cells; test: Western blot of c-Met signalling; format: cell-based, human; conditions: 2 h treatment
Protocol: Based on the sensitivity of LAH-1 against six cancer cell lines, we then conducted western blot assays to confirm the effect of LAH-1 on c-Met inhibition in cancer cells, and human non-small lung cancer (NSCLC) cell EBC-1 which harbours amplified Met gene was used.
Briefly, EBC-1 cells were seeded at a density of 1.5 × 10^6 cells/well and treated with Compound LAH-1 at the indicated concentration for 2 h. DMSO-treated cells were used as control groups. The whole cellular protein was extracted and measured by BCA protein assay. Total proteins were fractionated on SDS-PAGE and then transferred onto PVDF membranes (Millipore). Membranes were blocked with 5% BSA at room temperature and then incubated overnight at 4 °C with specific primary antibodies (Phospho-Met (CST, #3077S), Met (D1C2) (CST, #8198S), Phospho-Akt (CST, #4060S), Akt (pan) (C67E7) (CST, #4691S), Phospho-p44/42 MAPK (Erk1/2) (CST, #4370S), p44/42 MAPK (Erk1/2) (137F5) (CST, #4695S)) followed by the secondary antibody. Finally, the detection was performed by the Fully Automated Chemiluminescence/Fluorescence Image Analysis Systems (Tanon 5200).

EBC-1 cells [3] = test: Annexin V-FITC/PI dual staining apoptosis assay; format: cell-based, human; conditions: EBC-1, 24 h; untreated group 1.42%
Protocol: To determine whether the observed cell death was due to physiological apoptosis, Annexin V FITC/PI dual staining assay was conducted. EBC-1cells were treated with LAH-1 at different concentrations for 24 h to examine the effect on apoptosis.
The effect of LAH-1 on EBC-1 cells apoptosis was determined by Annexin V-FITC/PI apoptosis detection kit (BD Bioscience, Cat. No. 556547). Briefly, 300,000 EBC-1 cells were seeded in 6-well plate. After treatment with or without LAH-1 for 24 h, cells were collected, stained by FITC in binding buffer preventing from light, and then labelled by PI (absin, Cat. No. abs50005-50T). The apoptotic cells were analysed by flow cytometer Cytoflex S (Beckman Coulter).

EBC-1 cells [4] = test: Colony formation; format: cell-based, human; conditions: EBC-1, 14 days treatment, especially at 20 μM
Protocol: (§3) To investigate the effect of LAH-1 on colony formation ability, the EBC-1 cells which harbouring Met amplification were treated with different concentrations of LAH-1. […] Considering the important role of HGF/c-Met signalling in promoting cancer cell migration and invasion, the NCI-H441 cells with elevated expression level of c-Met was used. After treatment with HGF in the presence of LAH-1, the migratory and invasive abilities of NCI-H441 cells were determined.
EBC-1 cells were trypsinized and approximately 2000 cells were plated on 6-well plates. 14 days later, visible colonies were fixed and stained with 0.1% crystal violet. The number of colonies was quantified by Image J software (Developed by National Institutes of Health). A group of >50 cells was defined as one colony. All experiments were performed in duplicate wells.

NCI-H441 cells [5] = test: HGF-induced cell migration (transwell); format: cell-based; conditions: HGF 100 ng/mL, 28 h
Protocol: as §3
(§4) NCI-H441 cells in log growth phase were suspended in serum-free medium at a density of 150,000 cells per well and then seeded in 24-well transwell plates ([8] μm; Corning). Designated control or LAH-1 treated cells were added to each migration or invasion chamber and incubated for 28 h. Additionally, HGF (100 ng/mL) was added to the lower well of each companion plate to attract cells from migration or invasion chamber plate inserts at the top of the companion plate. The invaded or migrated cells to the lower wells were then fixed and stained with crystal violet. Images were taken by Olympus BX51 microscope.

NCI-H441 cells [6] = test: HGF-induced cell invasion (transwell); format: cell-based; conditions: HGF 100 ng/mL, 28 h
Protocol: as §3, §4

[7] = Liver microsomal stability assay; format: in vitro ADME, SD rat; conditions: RLM
Protocol: (§5) Having characterised LAH-1 as a potent c-Met inhibitor, the ADME properties and PK parameters were further determined. […] Additionally, Egg-PAMPA (Parallel artificial membrane permeability assay) confirmed LAH-1 as membrane permeable, with permeability rates (Pe) of 3.4 nm/s. […] Next, LAH-1 was further progressed into in vivo PK studies.
(§6) The liver microsomal stability assay, PAMPA, and CYP 450 Inhibition Assay were conducted according to the previous reported procedure.

[8] = Liver microsomal stability assay; format: in vitro ADME, human; conditions: HLM
Protocol: as §5, §6

[9] = Egg-PAMPA permeability assay; format: in vitro ADME; conditions: incubation 4 h
Protocol: as §5, §6

CYP1A2 = molecular target: T1, CYP1A2 (Homo sapiens, UniProt P05177); test: CYP450 inhibition assay; format: in vitro ADME
T1 sequence (P05177 1-516): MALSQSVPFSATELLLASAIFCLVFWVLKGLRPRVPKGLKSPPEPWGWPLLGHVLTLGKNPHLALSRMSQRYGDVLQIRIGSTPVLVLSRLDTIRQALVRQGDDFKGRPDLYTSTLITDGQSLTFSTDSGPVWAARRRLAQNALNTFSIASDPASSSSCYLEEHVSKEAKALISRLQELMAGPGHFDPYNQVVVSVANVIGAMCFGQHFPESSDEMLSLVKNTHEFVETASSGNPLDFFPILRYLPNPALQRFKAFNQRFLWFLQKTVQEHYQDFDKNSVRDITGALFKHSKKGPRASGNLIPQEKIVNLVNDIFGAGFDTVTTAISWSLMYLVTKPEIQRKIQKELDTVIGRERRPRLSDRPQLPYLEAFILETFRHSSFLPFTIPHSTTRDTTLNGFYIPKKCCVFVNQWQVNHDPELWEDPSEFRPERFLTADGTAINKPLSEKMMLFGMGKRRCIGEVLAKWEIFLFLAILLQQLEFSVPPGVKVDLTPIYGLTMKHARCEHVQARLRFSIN
Protocol: as §5, §6

CYP2C19 = CYP2C19 (Homo sapiens, UniProt P33261); test: CYP450 inhibition assay; format: in vitro ADME
Chain of CYP2C19 (P33261 whole entry): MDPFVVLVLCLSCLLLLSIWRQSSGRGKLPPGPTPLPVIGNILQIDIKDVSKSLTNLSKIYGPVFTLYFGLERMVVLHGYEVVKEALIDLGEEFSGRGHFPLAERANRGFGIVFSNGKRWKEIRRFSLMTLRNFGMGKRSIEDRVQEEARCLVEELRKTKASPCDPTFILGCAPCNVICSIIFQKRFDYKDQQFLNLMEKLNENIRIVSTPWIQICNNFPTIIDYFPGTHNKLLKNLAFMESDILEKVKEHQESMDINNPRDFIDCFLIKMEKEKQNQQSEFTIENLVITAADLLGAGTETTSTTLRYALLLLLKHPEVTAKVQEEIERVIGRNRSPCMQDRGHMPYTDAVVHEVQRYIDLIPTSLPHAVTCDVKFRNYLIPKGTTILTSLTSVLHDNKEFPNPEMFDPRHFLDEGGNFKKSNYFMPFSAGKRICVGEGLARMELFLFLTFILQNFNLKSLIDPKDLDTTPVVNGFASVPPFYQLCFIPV
Protocol: as §5, §6

CYP2C9 = CYP2C9 (Homo sapiens, UniProt P11712); test: CYP450 inhibition assay; format: in vitro ADME
Chain of CYP2C9 (P11712 whole entry): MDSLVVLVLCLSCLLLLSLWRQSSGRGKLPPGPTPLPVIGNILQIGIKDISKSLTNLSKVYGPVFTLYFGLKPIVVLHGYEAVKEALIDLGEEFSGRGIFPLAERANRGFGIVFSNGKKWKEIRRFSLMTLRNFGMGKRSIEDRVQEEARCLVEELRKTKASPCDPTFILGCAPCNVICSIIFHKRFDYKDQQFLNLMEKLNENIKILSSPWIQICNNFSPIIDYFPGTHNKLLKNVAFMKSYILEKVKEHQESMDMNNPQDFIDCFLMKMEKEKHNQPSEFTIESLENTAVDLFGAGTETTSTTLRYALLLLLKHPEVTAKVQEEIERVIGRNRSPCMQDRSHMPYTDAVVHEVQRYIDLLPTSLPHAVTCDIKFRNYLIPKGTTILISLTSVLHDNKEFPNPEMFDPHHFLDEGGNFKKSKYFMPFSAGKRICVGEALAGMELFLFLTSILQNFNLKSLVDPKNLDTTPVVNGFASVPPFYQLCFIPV
Protocol: as §5, §6

CYP2D6 = CYP2D6 (Homo sapiens, UniProt P10635); test: CYP450 inhibition assay; format: in vitro ADME
Chain of CYP2D6 (P10635 whole entry): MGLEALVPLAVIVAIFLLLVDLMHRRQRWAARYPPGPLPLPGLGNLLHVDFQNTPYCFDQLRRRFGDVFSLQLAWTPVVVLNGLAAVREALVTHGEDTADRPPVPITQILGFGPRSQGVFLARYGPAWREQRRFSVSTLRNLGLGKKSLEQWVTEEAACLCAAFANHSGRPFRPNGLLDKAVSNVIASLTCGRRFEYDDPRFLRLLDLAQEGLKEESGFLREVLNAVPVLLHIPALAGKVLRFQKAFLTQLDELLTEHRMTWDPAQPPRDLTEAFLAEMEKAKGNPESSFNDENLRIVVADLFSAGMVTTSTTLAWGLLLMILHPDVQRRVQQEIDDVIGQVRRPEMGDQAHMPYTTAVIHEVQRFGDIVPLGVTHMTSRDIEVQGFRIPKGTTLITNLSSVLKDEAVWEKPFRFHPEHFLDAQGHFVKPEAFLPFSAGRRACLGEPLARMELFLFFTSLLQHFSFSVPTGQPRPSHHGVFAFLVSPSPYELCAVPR
Protocol: as §5, §6

CYP3A4 = CYP3A4 (Homo sapiens, UniProt P08684); test: CYP450 inhibition assay; format: in vitro ADME
Chain of CYP3A4 (P08684 whole entry): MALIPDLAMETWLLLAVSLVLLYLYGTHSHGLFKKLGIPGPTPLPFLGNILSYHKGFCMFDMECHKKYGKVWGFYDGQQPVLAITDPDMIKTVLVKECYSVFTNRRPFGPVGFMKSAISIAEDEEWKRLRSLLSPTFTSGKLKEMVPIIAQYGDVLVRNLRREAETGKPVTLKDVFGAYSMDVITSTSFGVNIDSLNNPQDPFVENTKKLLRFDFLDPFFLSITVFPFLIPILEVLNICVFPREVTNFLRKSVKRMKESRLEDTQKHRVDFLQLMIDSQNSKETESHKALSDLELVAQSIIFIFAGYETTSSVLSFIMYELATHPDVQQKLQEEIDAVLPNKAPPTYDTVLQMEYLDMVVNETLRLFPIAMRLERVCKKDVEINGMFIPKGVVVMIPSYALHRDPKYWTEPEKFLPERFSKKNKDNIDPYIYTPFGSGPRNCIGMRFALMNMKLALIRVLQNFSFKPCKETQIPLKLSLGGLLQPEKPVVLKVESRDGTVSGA
Protocol: as §5, §6

In vivo pharmacokinetics = test: In vivo pharmacokinetics; design: species or system SD rats
Protocol: as §5
PK parameters of LAH-1 was determined in SD rats (male, n = 3 per group) weighing (200–240 g), which were obtained from SpePharm (Beijing) Biotechnology Co., Ltd. Briefly, rats were fasted overnight before dosing, LAH-1 was given as a solution in 10% DMSO with 90% Saline for intravenously (5 mg/kg) and 0.1% PEG400 in 0.5% CMC-Na in water for PO (20 mg/kg). Each rat received 2 or 10 ml of the dosing solution/kg of body weight by intravenous injection and by gavage, respectively. Blood sample was collected at 0.033 (iv only), 0.083, 0.25, 0.5,1, 2, 4, 6, 8, 12 and 24 h after dosing and stored in ice (0–4 °C). Plasma was separated by centrifugation within 15 min post sampling. Levels of LAH-1 in blood were determined by 6500+ Triple Quad LC-MS/MS System (AB SCIEX LLC, CA, USA). The PK parameters were calculated with WinNonlin software using noncompartmental analysis.

KDR = KDR (Homo sapiens, UniProt P35968); test: Kinase profile, KDR; conditions: 300 nM
Chain of KDR (P35968 20-1356, species assumed): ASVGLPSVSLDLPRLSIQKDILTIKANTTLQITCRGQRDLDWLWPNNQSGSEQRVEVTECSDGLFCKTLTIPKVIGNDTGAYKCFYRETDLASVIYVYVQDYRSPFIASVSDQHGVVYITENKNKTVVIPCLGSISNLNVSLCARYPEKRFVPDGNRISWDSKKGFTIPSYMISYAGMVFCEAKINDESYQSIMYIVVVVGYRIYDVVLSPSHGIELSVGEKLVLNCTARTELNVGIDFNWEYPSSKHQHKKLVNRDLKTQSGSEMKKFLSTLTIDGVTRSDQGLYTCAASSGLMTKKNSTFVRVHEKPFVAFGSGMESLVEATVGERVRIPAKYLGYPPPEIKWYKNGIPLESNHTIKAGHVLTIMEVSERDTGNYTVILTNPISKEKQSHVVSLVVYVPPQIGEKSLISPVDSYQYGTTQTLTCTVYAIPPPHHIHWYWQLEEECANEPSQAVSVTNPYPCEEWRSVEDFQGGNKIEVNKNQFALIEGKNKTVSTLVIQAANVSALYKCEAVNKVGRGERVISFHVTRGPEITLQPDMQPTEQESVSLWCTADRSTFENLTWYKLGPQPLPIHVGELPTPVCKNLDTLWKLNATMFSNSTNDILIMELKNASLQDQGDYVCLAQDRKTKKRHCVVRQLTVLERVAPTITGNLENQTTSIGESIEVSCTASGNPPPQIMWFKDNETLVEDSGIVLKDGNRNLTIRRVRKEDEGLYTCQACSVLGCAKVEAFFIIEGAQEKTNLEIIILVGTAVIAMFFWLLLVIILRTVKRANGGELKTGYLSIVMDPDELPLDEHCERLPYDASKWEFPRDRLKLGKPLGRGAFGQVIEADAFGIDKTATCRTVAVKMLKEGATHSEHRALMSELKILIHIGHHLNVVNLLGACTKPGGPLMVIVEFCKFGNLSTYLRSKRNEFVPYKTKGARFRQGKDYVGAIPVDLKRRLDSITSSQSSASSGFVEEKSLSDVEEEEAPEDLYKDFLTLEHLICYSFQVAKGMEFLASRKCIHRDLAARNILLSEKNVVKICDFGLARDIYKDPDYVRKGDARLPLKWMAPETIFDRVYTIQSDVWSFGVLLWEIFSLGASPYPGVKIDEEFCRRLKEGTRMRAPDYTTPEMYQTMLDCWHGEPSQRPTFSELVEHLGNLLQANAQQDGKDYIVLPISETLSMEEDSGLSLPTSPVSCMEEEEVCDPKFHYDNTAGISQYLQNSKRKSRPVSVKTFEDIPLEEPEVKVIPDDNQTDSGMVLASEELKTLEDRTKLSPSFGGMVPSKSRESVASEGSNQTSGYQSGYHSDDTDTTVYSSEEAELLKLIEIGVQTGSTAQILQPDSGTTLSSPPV

[10] = system: panel of 18 diversified kinases; test: Kinase profile against a panel of 18 kinases; conditions: 300 nM; including highly homologous kinases RON and Axl
c-Met = c-Met (Homo sapiens, UniProt P08581); test: In vitro enzymatic assay (mobility shift assay, ATP at Km)
Chain of c-Met (P08581 956-1390 limits assumed): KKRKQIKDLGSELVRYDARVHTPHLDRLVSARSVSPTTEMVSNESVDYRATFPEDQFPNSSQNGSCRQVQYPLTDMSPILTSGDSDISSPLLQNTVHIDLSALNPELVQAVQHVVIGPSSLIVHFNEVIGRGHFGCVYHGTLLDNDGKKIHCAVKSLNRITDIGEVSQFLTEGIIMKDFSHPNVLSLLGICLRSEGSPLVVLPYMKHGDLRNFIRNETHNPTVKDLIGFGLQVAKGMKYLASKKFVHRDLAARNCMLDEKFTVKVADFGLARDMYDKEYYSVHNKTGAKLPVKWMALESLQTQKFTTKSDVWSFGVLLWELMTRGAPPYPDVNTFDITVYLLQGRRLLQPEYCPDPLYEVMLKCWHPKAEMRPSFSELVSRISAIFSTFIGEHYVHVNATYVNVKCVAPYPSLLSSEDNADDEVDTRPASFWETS
Protocol: The compound and enzyme solution were added to the assay plate and incubate at room temperature for 10 min. Then the peptide solution was added, incubate at 28 °C for specified period of time, and subsequently added the stop buffer. Data was collected on Calliper, and IC50 values were calculated from the inhibition curves.

[11] = Sprague-Dawley, rat, plasma, iv, 5 mg/kg, male SD rats
[12] = Sprague-Dawley, rat, plasma, po, 20 mg/kg, male SD rats

IC50 (U87MG cells): 15.7 µM | IC50 (HT-1080 cells; Homo sapiens, HT-1080, 72 h, CCK-8, c-Met non-addicted cell line): > 100 µM | Remaining (T = 60min) [7]: 81.2% | half-life ([7]; Sprague-Dawley, rat, liver microsomes): > 2.08 h | microsomal CLint ([7]; Sprague-Dawley, rat, liver microsomes, read-out: CL int): < 8.6 µL/min/mg | Remaining (T = 60min) [8]: 88.7% | half-life ([8]; human, liver microsomes): > 2.08 h | microsomal CLint ([8]; human, liver microsomes, read-out: CL int): < 8.6 µL/min/mg | Permeability ([9]; 10 μM): Moderate | Papp at 4 h, 10 μM ([9]; read-out: Mean Pe): 0.34 ×10⁻⁶ cm/s | inhibition at 10 µM (CYP1A2): 12.8% | inhibition at 10 µM (CYP2C19): 15.6% | inhibition at 10 µM (CYP2C9): 50.7% | inhibition at 10 µM (CYP2D6): 21.5% | inhibition at 10 µM (CYP3A4): 32.2% | AUC(0-inf) (In vivo pharmacokinetics; [11]): 16800 ng·h/mL | Cmax (In vivo pharmacokinetics; [11]): 14900 ng/mL | clearance (In vivo pharmacokinetics; [11]): 19.2 mL/min/kg | half-life (In vivo pharmacokinetics; [11]): 1.6 h | bioavailability (In vivo pharmacokinetics; Sprague-Dawley, rat, plasma, po 20 mg/kg vs iv 5 mg/kg, male SD rats, read-out: F% (oral bioavailability)): 12.2% | AUC(0-inf) (In vivo pharmacokinetics; [12]): 8210 ng·h/mL | Cmax (In vivo pharmacokinetics; [12]): 4460 ng/mL | Tmax (In vivo pharmacokinetics; [12]): 0.33 h | half-life (In vivo pharmacokinetics; [12]): 2.2 h | plasma clearance (in words) (In vivo pharmacokinetics; iv, 5 mg/kg, SD rats): moderate plasma clearance | inhibition on KDR (KDR): showed inhibition | selectivity over the other 16 kinases [10]: great selectivity | IC50 (c-Met): 0.049 µM
SMILES: Cc1cc(=O)n(-c2ccc(F)cc2)nc1C(=O)Nc1ccc(Oc2ccnc(NC(=O)N3CC(O)C3)c2)c(F)c1 [LAH-1, N-(3-fluoro-4-((2-(3-hydroxyazetidine-1-carboxamido)pyridin-4-yl)oxy)phenyl)-1-(4-fluorophenyl)-4-methyl-6-oxo-1,6-dihydropyridazine-3-carboxamide]
IC50 (EBC-1 cells [1]): 1.15 µM | IC50 (Hs746T cells): 2.35 µM | IC50 (OE33 cells): 4.28 µM | IC50 (SBC-5 cells): 16.1 µM | effect on HT-1080 (in words) (HT-1080 cells; cell line with low expression or activation of c-Met): minimal effect | inhibition at 100 µM (WI-38 cells): 34.5% | phosphorylation level of c-Met, Akt, and Erk 1/2 [2]: dose-dependent decrease | early apoptosis (EBC-1 cells [3]): 16.8% | colony formation (EBC-1 cells [4]): significantly inhibited | migration of HGF-induced NCI-H441 cells (NCI-H441 cells [5]): dose dependent suppressed | invasion of HGF-induced NCI-H441 cells (NCI-H441 cells [6]): dose dependent suppressed
